# “Also recorded” adds a separate entry of the source.
# Key:
# LNCaP cells = assay: Cell killing / viability of androgen dependent prostate cancer cell line LNCaP; type: cell-based; conditions: mahanine 1, 2, 3 μg/ml vs untreated cells
# Description: FIG. 2 is a graph showing dose response of PC-3 and LNCaP cell line to mahanine. […] The dose used was 1, 2, 3 μg/ml in comparison to control untreated cells (0) in both the cell lines.
# caspase 3 = assay: Immunoblotting of caspase 3 activation in PC-3 cells; type: cell-based, human
# Description: (§1) PC-3 cells (1×10^6 cells) were incubated with complete medium. Cells were detached using cell dissociation reagent from Sigma Chemical company St Louis, Mo., USA. They were collected by centrifugation at 1500 g for 10 minutes and boiled for 5-7 minutes in sodium dodecyl sulphate (SDS) buffer (pH 6.8). Aliquots containing 60 μg total cellular protein were separated by 10% SDS-PAGE and transferred to PVDF membrane (MILIPORE, Bedford, Mass., USA). Membrane was blocked with blocking buffer for 1 hr at room temperature and probed with desired primary antibody caspase 9, Bcl-xl, pAkt/1/2/3(ser 473), anti PARP, Cytochrome C (Santa-Cruz Biotechnology, Inc. USA). Anti caspase 3 that recognizes procaspase 3 (32 kDa) and the active cleaved caspase 3 (17 kDa) (BD Biosciences, Mountainview, Calif.). Akt, cleaved caspase 9 (Cell Signaling technology, Beverly, Mass.) overnight at 4° C. followed by alkaline phosphatase conjugated secondary antibody and detection.
# (§2) PC-3 cells (1×10^6 cells) were incubated with complete medium alone or with 3 μg/ml of Mahanine (MK-3) as indicated. Cells were detached using cell dissociation reagent from Sigma Chemical company St Louis, Mo., USA. The cells were collected by centrifugation at 1500 g for 10 minutes and boiled for 5-7 minutes in SDS buffer (pH 6.8). […]
# [1] = Acute toxicity as per WHO guidelines, haematological and biochemical parameters; type: in vivo, Mice; Balb/C
# Description: Experiments for acute toxicity were performed as per the guidelines of WHO.
# Experimental subject: Mice; Balb/C Male, female; 25 gms body weight (approx).
# 16 mice were divided into 2 groups; 8 animals received the dosage of @2 gm/kg body weight of combined extract. Equal volume of the vehicle (DMSO) was given to 8 animals, wherein the dose was administered orally once and then animals were sacrificed and haematological parameters checked 15 days after treatment.
# Experimental subject: Mice; Balb/C Male; female; 25 gms body weight (approx).
# 16 mice were divided into 2 groups 8 animals were received the compound @2 gm/kg body weight. Equal volume of the vehicle (DMSO) was given to 8 animals, wherein the dose was administered orally once, and then animals were sacrificed and haematological and biochemical parameters checked 15 days after treatment.
# Biochemical parameters were assessed for the pure molecule mahanine. Since it is a pure molecule there is a need to see the biochemical profile, therefore we concentrated on the biochemical parameters only. The experimental procedure followed was the same as that for the combined extract described above.
# cardiomyocytes = assay: Cell viability, primary culture of rat neonatal cardiomyocytes; type: cell-based; conditions: 9 μg/ml
# Description: The cardiomyocytes from 2-day-old neonatal rat were isolated by the method previously described by Yoshihiro Kimura (1994) with modifications. Briefly, heart was excised and minced in pre warmed (37° C.) Ads buffer (1.2M NaCl, 198 mM HEPES, 54 mM KCl, 8.3 mM MgSO4, 55.4 mM glucose, 95 mM NaH2PO4), digested in type II Collagenase 0.05% and Pancreatin in three successive digestions of 15 minutes each. Supernatant was pooled and cells palleted at 2000 g, for 10 minutes. Cells were resuspended and plated in collagen coated T-25 flasks in Medium-199 enriched with 10% FBS and 1% antibiotic-antimycotic.
# The cardiomyocytes from 2-day-old neonatal rat were isolated by the method previously described by Yoshihiro Kimura (1994) with modifications. Briefly, the heart was excised and minced in pre-warmed (37° C.) Ads buffer (1.2M NaCl, 198 mM HEPES, 54 mM KCl, 8.3 mM MgSO4, 55.4 mM glucose, 95 mM NaH2PO4), digested in type II Collagenase 0.05% and Pancreatin in 3-succesive digestions of 15 minutes each. Supernatant was pooled and cells palleted at 2000 g, 10 minutes. Cells were resuspended and plated in collagen coated T-25 flasks in Medium-199 enriched with 10% FBS and 1% antibiotic-antimycotic.
# (§3) To evaluate the specificity of mahanine, its effect on other cells in primary culture, such as, hepatocytes, cardiomyocyte and skeletal muscle was examined.
# Akt = assay: Immunoblotting of Akt and pAkt (ser 473) in PC-3 cells; type: cell-based, human
# Description: as §1
# PC-3 cells (1×10^6 cells) were incubated with complete medium alone or with 3 μg/ml of Mahanine (MK-3) as indicated. Cells were detached using cell dissociation reagent from Sigma Chemical company St Louis, Mo., USA. The cells were collected by centrifugation at 1500 g for 10 minutes and boiled for 5-7 minutes in SDS buffer (pH 6.8). Aliquots containing 60 μg total cellular protein were separated by 10% SDS-PAGE and transferred to PVDF membrane (MILIPORE, Bedford, Mass., USA). Membrane was blocked with blocking buffer for 1 hr at room temperature and probed with desired primary antibody caspase 9, Bcl-xl, pAkt/1/2/3(ser 473), anti PARP, Cytochrome C (Santa-Cruz Biotechnology Inc., USA). Anti-caspase 3 that recognizes procaspase 3 (32 kDa) and the active cleaved caspase 3 (17 kDa) (BD Biosciences, Mountainview, Calif.) were also used. Akt, cleaved caspase 9 (Cell Signaling Technology, Beverly, Mass.) overnight at 4° C. followed by alkaline phosphatase conjugated secondary antibody and detection.
# PARP = assay: Immunoblotting of PARP cleavage in PC-3 cells; type: cell-based, human; conditions: 3 μg/ml
# Description: as §1, §2
# Bcl-xl = assay: Immunoblotting of Bcl-xl expression in PC-3 cells; type: cell-based, human; conditions: 36 hrs (mahanine 3 μg/ml)
# Description: as §1, §2
# hepatocytes = assay: Cell viability, primary culture of rat neonatal hepatocytes; type: cell-based; conditions: 9 μg/ml
# Description: The hepatocytes from 2-day-old neonatal rats were isolated by method described previously by William E. Russell (1997) with modifications. Briefly, the livers were perfused through the portal vein with a calcium-free solution consisting of 150 mM NaCl, 2.8 mM KCl, 5.5 mM glucose, and 25 mM HEPES (pH 7.6) for 10 minutes, followed by mincing and digestion in DMEM containing 0.05% collagenase type IV for 30 minutes. The cells were centrifuged (2000 g, 10 minutes) and dispersed in DMEM enriched with 10% FBS, 1% antibiotic-antimycotic.
# The hepatocytes from 2-day-old neonatal rat were isolated by method described previously by William E Russell (1997) with modifications.
# Briefly, the livers were perfused through the portal vein with a calcium-free solution consisting of 150 mM NaCl, 2.8 mM KCl, 5.5 mM glucose, and 25 mM HEPES (pH 7.6) for 10 minutes, followed by mincing and digestion in DMEM containing 0.05% collagenase type IV for 30 minutes. The cells were centrifuged (2000 g, 10 minutes) and dispersed in DMEM enriched with 10% FBS, 1% antibiotic-antimycotic.
# as §3
# PC-3 cells = assay: Viability of PC-3 by MTT assay (CellTiter 96 AQueous One); type: cell-based, human; conditions: mahanine 1, 2, 3 μg/ml vs untreated cells
# Description: Human prostate cancer cell line, PC-3 (PTEN-ve, androgen independent) from American Type Culture Collection, Manassas, Va., USA was used. Cells were grown in Dulbecco's Modified Eagle Medium (DMEM) supplemented with 10% Fetal Bovine Serum (FBS) and 1% antibiotic-antimycotic. Cells were cultured in 37° C. in an atmosphere of 5% CO2.
# Viability of PC-3 after treatment as at the indicated times was determined by MTT assay—CellTiter 96® AQoueus One Solution Cell Proliferation Assay (Promega Corp., Madison, Wis.), as per manufacturer's protocol. Briefly, 10,000 cells were plated in triplicate in 96 well plates and incubated for 12 hrs in complete media. […] Absorbance was recorded at 490 nm with 96 well plate readers. Reference wavelength of 630 nm was used to reduce background contributed by non-specific absorbance due to cell debris. […]
# Viability of PC-3 after treatment as at the indicated times was determined by MTT assay—CellTiter 96® AQoueus One Solution Cell Proliferation Assay (Promega Corp., Madison, Wis.), as per manufacturer's protocol.
# Briefly, 10,000 cells were plated in triplicate in 96 well plates and incubated for 12 hrs in complete media. […] Absorbance was recorded at 490 nm with 96 well plate readers. Reference wavelength of 630 nm was used to reduce background contributed by non-specific absorbance due to cell debris.
# cytochrome c = assay: Immunofluorescence of cytochrome c release in PC-3 cells; type: cell-based, human
# Description: Cells were cultured on glass cover slips. Both control and treated cells were fixed with PBS containing 4% paraformaldehyde for 2 hrs at 4° C. The cells were permiabilized with 0.1% Triton X-100 in PBS and then incubated with rabbit polyclonal anti-cytochrome c antibody (Santa Cruz, USA, dilution 1:50) for 3 hrs followed by incubation with FITC-conjugated secondary antibody (goat anti-rabbit, Santa Cruz, 1:50) for another 1 hr with rigorous washing in all the above steps with PBS. 1 μg/ml DAPI was also added in each set. The stained cells were observed under fluorescence microscope (Olympus BX51 microscope, Tokyo, Japan) and the images were captured with Cool Snap Pro camera.
# caspase 9 = assay: Immunoblotting of caspase 9 activation in PC-3 cells; type: cell-based, human; conditions: 3 μg/ml
# Description: as §1, §2
# skeletal muscle cells = assay: Cell viability, primary culture of neonatal rat skeletal muscle; type: cell-based; conditions: 9 μg/ml
# Description: The skeletal muscles from 2-day-old neonatal rats were isolated by method described previously by William E. Russell (1997) with modifications. Briefly, Soleus muscle was dissected, minced and digested with 0.2% Type II Collagenase and 0.05% trypsin in PBS pH 7.4, 0.15M NaCl. The dispersed skeletal muscle cells were centrifuged (100 g, 10 minutes) washed and resuspended in PBS with 1% antibiotic-antimycotic. Cells were preincubated for 30 minutes at 37° C., 95% air/5% CO2. The floating muscle cells were plated on collagen coated T-25 flasks in DMEM enriched with 10% FBS and 1% antibiotic-antimycotic.
# The skeletal muscles from 2-day-old neonatal rat were isolated by method described previously by William E. Russell (1997) with modifications.
# Briefly, Soleus muscles were dissected, minced and digested with 0.2% Type II Collagenase and 0.05% trypsin in PBS, pH 7.4, 0.15M NaCl. The dispersed skeletal muscle cells were centrifuged (1000 g, 10 minutes) washed and re-suspended in PBS with 1% antibiotic-antimycotic. Cells were preincubated for 30 minutes at 37° C., 95% air/5% CO2. The floating muscle cells were plated on collagen coated T-25 flasks in DMEM enriched with 10% FBS and 1% antibiotic-antimycotic.
# as §3
substance,measurement,setting,value
mahanine,killing / apoptosis of androgen dependent cell line LNCaP,LNCaP cells,in a dose and time dependent manner
same,time of peak of caspase 3 activity,caspase 3; PC-3 cells (mahanine 3 μg/ml),60 h
same,activation of caspase 3 at 48 hrs,"caspase 3; PC-3 cells, 48 hrs (mahanine 3 μg/ml)",considerably increased
same,indication of toxicity in treated mice,"[1]; Balb/C mice, 2 gm/kg orally once, 15 days after treatment",no indication of any toxicity
same,Creatinine,"[1]; Balb/C mice, 2 gm/kg orally once, 15 days after treatment, vehicle control 3.82",3.72 mg/dL
same,Hb,"[1]; Balb/C mice, 2 gm/kg orally once, 15 days after treatment, vehicle control 10.69",10.713 gm/dl
same,SGPT,"[1]; Balb/C mice, 2 gm/kg orally once, 15 days after treatment, vehicle control 32.0",30.7 units/ml
same,Urea,"[1]; Balb/C mice, 2 gm/kg orally once, 15 days after treatment, vehicle control 35.4",48.6 mg/dL
same,WBC,"[1]; Balb/C mice, 2 gm/kg orally once, 15 days after treatment, vehicle control 92",89
same,SGOT,"[1]; Balb/C mice, 2 gm/kg orally once, 15 days after treatment, vehicle control 147.5",174.0 units/ml
same,RBC,"[1]; Balb/C mice, 2 gm/kg orally once, 15 days after treatment, vehicle control 1029",1032
same,change in acute toxicity data until 1 month,"[1]; mice, until 1 month",no change
same,killing of cardiomyocytes in primary culture,cardiomyocytes,did not kill
same,effect on steady state levels of Akt protein,Akt; PC-3 cells,no effect
same,inhibition of phosphorylation of Akt,Akt; PC-3 cells,in a dose and time dependent manner
same,time at which Akt serine 473 phosphorylation was inhibited,Akt; PC-3 cells (mahanine 3 μg/ml),24 h
same,time by which Akt activation was totally blocked,Akt; PC-3 cells (mahanine 3 μg/ml),≤ 36 h
same,time of maximum cleavage of PARP (89 kDa fragment),PARP,36 h
same,Bcl-xl expression at 36 hrs,Bcl-xl,significantly decreased; also recorded: considerably downregulated
same,killing of hepatocytes in primary culture,hepatocytes,did not kill
same,killing / apoptosis of androgen independent cell line PC-3,PC-3 cells,in a dose and time dependent manner
same,killing / apoptosis of androgen independent cell line PC-3,PC-3 cells; listed as mahanine,in a time and dose dependent manner
same,leakage of cytochrome c from the mitochondria,cytochrome c,caused leakage of cytochrome c
same,earliest time at which cleaved caspase 9 could be detected,caspase 9,6 h
same,time course of cleaved caspase 9,caspase 9,"steadily increased at 12 hrs and 24 hrs, and declined at 36 hrs"
same,killing of skeletal muscle cells in primary culture,skeletal muscle cells,did not kill

# — patent US20070072931A1, “Pharmaceutical composition and a method for treatment of prostate cancer” (priority 2005, published 2007)
